Assay results taken from patent US20160145258A1, “Inhibitor Crystalline Form and Preparation Method and Use Thereof” (Hangzhou Pushai Pharmaceutical Technology Co., LTD., priority 2013, published 2016).
“Also recorded” adds a separate entry of the source.

Tests used:
Assay type in all cases: physicochemical
[1] = Hygroscopicity by dynamic vapor sorption (DVS) isothermal sorption; conditions: for Weight change within 20%-80% RH range: DVS isothermal sorption, relative humidity 20%-80%; for Hygroscopicity in words (compared to Form I): from DVS weight change within 20-80% RH
Experimental: Dynamic vapor sorption (DVS) data were collected using TA Instruments Q500 TGA. The instrument control software was Thermal Advantage, and the analytical software was Universal Analysis. Usually, 1-10 mg of the sample was placed in a platinum pan, and the weight change of the sample during studies was recorded. The relative humidity was usually programed to change from 50% to 80% to 0% and then back to 50%, and an isothermal sorption plot could be generated. Depending on specific situations, different sorption and desorption procedures might be used. Hygroscopicity comparison: DVS isothermal sorption curves were used, and weight changes within the 20%-80% RH range were measured.

[2] = Competitive slurry 2 in mixed solvent of isopropanol and water, solids characterized by XRPD; conditions: equal quantity (5 mg) of Form VI and Form IX in 1 mL isopropanol and water (1:4, v/v), room temperature, 7 days
Text: (§1) The slurry method described in the present invention refers to stirring of a supersaturated solution of the sample (with undissolved solids) in various solvent systems for crystallization. Usually, the duration is 14 days.

[3] = Competitive slurry of Form IX and Form I in mixed solvents of ethanol and water, solids characterized by XRPD; conditions: equal quantity (4 mg) of Form IX and Form I in 1 mL ethanol and water (1:1, 1:4, 1:5 and 1:10), room temperature, 7 days
[4] = Competitive slurry 1 in nitromethane, solids characterized by XRPD; conditions: equal quantity (5 mg) of Form I, II, III, IV and VIII in nitromethane, room temperature, 7 days
Text: as §1

SMILES	Weight change within 20%-80% RH range [1]	Hygroscopicity in words (compared to Form I) [1]	Hygroscopicity in words (compared to Form I) ([1]; listed as Form. IX)	Competitive slurry 2: crystal form after slurry [2]	Competitive slurry: crystal form after slurry [3]	Competitive slurry 1: crystal form after slurry [4]
CC[C@H](Nc1ncnc2[nH]cnc12)c1nc2cccc(F)c2c(=O)n1-c1ccccc1 [Form IX, 5-fluoro-3-phenyl-2-[(S)-1-(9H-purin-6-ylamino)-propyl]-3H-quinazoline-4-one]	0.3%	less hygroscopic; also recorded: lower hygroscopicity; also recorded: least hygroscopicity	low hygroscopicity	transformed into Form VI; also recorded: Form VI, while Form VI	more stable; also recorded: remained unchanged; also recorded: unchanged, while Form I	
CC[C@H](Nc1ncnc2[nH]cnc12)c1nc2cccc(F)c2c(=O)n1-c1ccccc1 [Form I, 5-fluoro-3-phenyl-2-[(S)-1-(9H-purin-6-ylamino)-propyl]-3H-quinazoline-4-one, reference compound]	0.95%				transformed into Form IX	transformed into Form III
CC[C@H](Nc1ncnc2[nH]cnc12)c1nc2cccc(F)c2c(=O)n1-c1ccccc1 [Form VI, 5-fluoro-3-phenyl-2-[(S)-1-(9H-purin-6-ylamino)-propyl]-3H-quinazoline-4-one]	0.57%	lower hygroscopicity; also recorded: less hygroscopic		remained unchanged		
CC[C@H](Nc1ncnc2[nH]cnc12)c1nc2cccc(F)c2c(=O)n1-c1ccccc1 [Form II, 5-fluoro-3-phenyl-2-[(S)-1-(9H-purin-6-ylamino)-propyl]-3H-quinazoline-4-one]	0.46%	less hygroscopic				transformed into Form III
CC[C@H](Nc1ncnc2[nH]cnc12)c1nc2cccc(F)c2c(=O)n1-c1ccccc1 [Form III, 5-fluoro-3-phenyl-2-[(S)-1-(9H-purin-6-ylamino)-propyl]-3H-quinazoline-4-one]	0.44%	less hygroscopic				thermodynamically the most stable form; also recorded: III remained unchanged
CC[C@H](Nc1ncnc2[nH]cnc12)c1nc2cccc(F)c2c(=O)n1-c1ccccc1 [Form IV, 5-fluoro-3-phenyl-2-[(S)-1-(9H-purin-6-ylamino)-propyl]-3H-quinazoline-4-one]	0.27%	less hygroscopic; also recorded: least hygroscopicity; also recorded: low hygroscopicity				transformed into Form III
CC[C@H](Nc1ncnc2[nH]cnc12)c1nc2cccc(F)c2c(=O)n1-c1ccccc1 [Form VIII, 5-fluoro-3-phenyl-2-[(S)-1-(9H-purin-6-ylamino)-propyl]-3H-quinazoline-4-one]	0.84%	less hygroscopic; also recorded: low hygroscopicity				transformed into Form III
